Data reported in PubChem BioAssay (NCI).
“And” between values parts separate entries of the source, which are not always exact repeats. Equal values may be shown once.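 In this assay, cells in 96-well plates receive the compound at five concentrations for 48 hours. Endpoints are linearly interpolated between the surrounding concentrations. Abbreviation: GI50, concentration required for 50% inhibition of growth. TGI: concentration producing complete growth inhibition.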

Assays:
Assay in all cases: inhibition of tumour cell growth, NCI panel, 48 h
IGROV1 ovarian = tested on: IGROV1 ovarian
MDA-MB-231 breast = tested on: MDA-MB-231 breast
LOX IMVI melanoma = tested on: LOX IMVI melanoma
U251 CNS = tested on: U251 CNS
SR leukemia = tested on: SR leukemia
T-47D breast = tested on: T-47D breast
SNB-75 CNS = tested on: SNB-75 CNS
HL-60(TB) leukemia = tested on: HL-60(TB) leukemia
MOLT-4 leukemia = tested on: MOLT-4 leukemia
NCI/ADR-RES ovarian = tested on: NCI/ADR-RES ovarian

| SMILES | GI50 (IGROV1 ovarian) | TGI (IGROV1 ovarian) | GI50 (MDA-MB-231 breast) | TGI (MDA-MB-231 breast) | GI50 (LOX IMVI melanoma) | TGI (LOX IMVI melanoma) | GI50 (U251 CNS) | TGI (U251 CNS) | GI50 (SR leukemia) | TGI (SR leukemia) | GI50 (T-47D breast) | TGI (T-47D breast) | GI50 (SNB-75 CNS) | TGI (SNB-75 CNS) | GI50 (HL-60(TB) leukemia) | TGI (HL-60(TB) leukemia) | GI50 (MOLT-4 leukemia) | TGI (MOLT-4 leukemia) | GI50 (NCI/ADR-RES ovarian) | TGI (NCI/ADR-RES ovarian) |
| --- | --- | --- | --- | --- | --- | --- | --- | --- | --- | --- | --- | --- | --- | --- | --- | --- | --- | --- | --- | --- |
| Cc1c(O)cccc1C(=O)N[C@@H](CSc1ccccc1)[C@H](O)CN1C[C@H]2CCCC[C@H]2C[C@H]1C(=O)NC(C)(C)C | 3.45 µM and 2.62 µM | 32 µM and 7.74 µM | 3.24 µM and 5.92 µM | 11.5 µM and 13.7 µM | 5.27 µM and 5.39 µM | 18.8 µM and 15.8 µM | 3.79 µM and 4.25 µM | 14.5 µM and 14.7 µM | 2.21 µM | 5.48 µM | 3.79 µM and 6.02 µM | 19.4 µM and > 55.6 µM | 2.77 µM and 2.58 µM | 14.5 µM and 18.4 µM | 2.95 µM and 3.43 µM | > 26 µM and 13.6 µM | 2.22 µM and 2.96 µM | 5.46 µM and 10.4 µM | 4.87 µM and 6.17 µM | 32.1 µM and 27.1 µM |
| CN1C(=O)C(N=Nc2ccc([N+](=O)[O-])cc2)SC1=S (stereo unspecified) | 1.99 µM and 11.4 µM |  | 13.3 µM and 11.7 µM | 51 µM and 44.3 µM | 2.56 µM and 9.05 µM | 48.5 µM and 98.4 µM | 3.3 µM and 7.63 µM | 70.8 µM and > 100 µM | 2.66 µM and 4.47 µM | > 100 µM | 2.71 µM and 4.26 µM | > 100 µM and 47.5 µM | 3.23 µM and 16.1 µM | 67.2 µM and 89.1 µM | 0.678 µM and 2.84 µM | 8.68 µM and 8.38 µM | 5.82 µM and 5.81 µM | > 100 µM | 2.62 µM and 4.58 µM | 64.4 µM and 37 µM |
| Nc1nc(N)c2cc(S(=O)(=O)c3ccc4ccccc4c3)ccc2n1 |  | > 100 µM |  | > 31.6 µM |  | > 100 µM |  | 23.6 µM | > 100 µM | > 100 µM |  | > 29.6 µM |  | 12.3 µM |  | > 100 µM | > 100 µM | > 100 µM |  | > 100 µM |
| O=C1/C(=C/c2ccc(Cl)cc2)CN(Cc2cn(CCCNc3ccnc4cc(Cl)ccc34)nn2)C/C1=C\c1ccc(Cl)cc1 | 1.29 µM | 3.12 µM | 0.757 µM | 2.45 µM | 0.249 µM | 0.719 µM | 0.269 µM | 0.9 µM | 0.379 µM | 1.93 µM | 1.95 µM | 6.37 µM | 1.39 µM | 2.92 µM | 0.809 µM | 3.33 µM | 0.878 µM | > 24.5 µM | 1.65 µM | 6.51 µM |
